Among the data in US7989464B2, “mGluR1 antagonists as therapeutic agents” (Schering Corporation, priority 2004, dated 2011) are IC50 values, retold here.

pIC50: −log10 of the molar value. Where only a bound is given, the exact number is not on record here.

The target of one assay is T1, hmGluR1 receptor (Homo sapiens, UniProt Q13255).
T1 construct: expressed in transfected cells
T1 sequence (Q13255 19-1194): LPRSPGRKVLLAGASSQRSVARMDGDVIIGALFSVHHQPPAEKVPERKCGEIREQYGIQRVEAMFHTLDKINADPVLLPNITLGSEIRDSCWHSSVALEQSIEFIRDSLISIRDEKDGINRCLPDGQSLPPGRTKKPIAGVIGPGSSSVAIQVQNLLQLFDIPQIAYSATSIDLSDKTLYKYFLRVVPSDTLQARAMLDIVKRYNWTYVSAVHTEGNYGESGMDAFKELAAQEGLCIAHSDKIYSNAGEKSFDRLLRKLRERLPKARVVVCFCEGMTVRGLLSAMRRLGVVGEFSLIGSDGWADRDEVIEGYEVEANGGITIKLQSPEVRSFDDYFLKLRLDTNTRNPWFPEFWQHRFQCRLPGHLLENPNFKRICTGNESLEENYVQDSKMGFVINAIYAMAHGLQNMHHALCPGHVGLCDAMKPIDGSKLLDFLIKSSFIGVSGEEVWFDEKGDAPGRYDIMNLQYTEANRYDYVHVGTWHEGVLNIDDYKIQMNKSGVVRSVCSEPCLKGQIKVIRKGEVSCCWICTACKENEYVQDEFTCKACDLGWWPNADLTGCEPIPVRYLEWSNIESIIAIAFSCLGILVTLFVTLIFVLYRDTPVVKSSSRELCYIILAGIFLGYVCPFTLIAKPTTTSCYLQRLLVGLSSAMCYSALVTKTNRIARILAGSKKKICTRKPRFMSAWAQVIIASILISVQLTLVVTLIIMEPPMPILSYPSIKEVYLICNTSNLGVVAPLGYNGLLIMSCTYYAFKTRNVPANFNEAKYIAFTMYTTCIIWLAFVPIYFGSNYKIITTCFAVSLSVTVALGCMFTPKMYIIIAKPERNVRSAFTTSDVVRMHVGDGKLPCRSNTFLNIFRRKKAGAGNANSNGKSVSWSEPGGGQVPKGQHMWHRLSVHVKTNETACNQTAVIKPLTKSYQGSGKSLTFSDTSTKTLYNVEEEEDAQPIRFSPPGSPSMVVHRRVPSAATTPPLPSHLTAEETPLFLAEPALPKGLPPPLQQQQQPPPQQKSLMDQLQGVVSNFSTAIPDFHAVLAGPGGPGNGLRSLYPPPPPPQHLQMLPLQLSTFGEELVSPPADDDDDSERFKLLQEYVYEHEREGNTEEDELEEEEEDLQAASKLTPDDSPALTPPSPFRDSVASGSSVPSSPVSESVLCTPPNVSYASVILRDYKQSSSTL
The assay is described as follows: IC50 determination: intracellular calcium mobilization (FLIPR) upon Quisqualate stimulation in CHO cells stably expressing hmGluR1. Format: cell-based. The note with it: against Quisqualate 1 μM (EC80), FLIPR calcium mobilization, read-out: IC50 Class. A digest of the protocol: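 CHO cells stably expressing hmGluR1 were kept overnight in DMEM high glucose with GPT and 1 mM pyruvate, then loaded 2 h with Calcium 3 dye.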
For orientation: Calcium flux is commonly read through the fluorescence of an indicator in the cells.
Regarding `CN(C)c1ccnc2sc3c(=O)n(C4CCCC(C(=O)O)C4)cnc3c12` (stereo not shown) [28EJ], the pIC50 is less than 6.00.

For `O=c1c2sc3ncnc(Nc4ccccc4)c3c2ncn1-c1ccccc1` [95GC], the pIC50 was less than 6.00. On the same count and under the same terms, the value for `CN(C)c1ccnc2sc3c(=O)n(-c4ccc(OS(C)(=O)=O)cc4)cnc3c12` [compound 204] was 6.82 to 7.30; that for `O=c1c2sc3ncc(Br)c(NC4CC4)c3c2ncn1-c1ccc(Cl)cc1` [28EI] was 6.00 to 6.82; that for `C#CCOc1ccnc2sc3c(=O)n(-c4ccc(Br)cc4)cnc3c12` [66I] was more than 7.30. Consider `Cc1ccc(-n2cnc3c(sc4nccc(NC5CC5)c43)c2=O)cc1F` [131L], for which the pIC50 is more than 7.30. `C=CCc1ccnc2sc3c(=O)n(-c4ccc(Cl)cc4)cnc3c12` [178A]: the pIC50 was 6.82 to 7.30. Take `Cc1nc(N)c2c(n1)sc1c(=O)n(-c3ccccc3)cnc12` [95EX]: the negative logarithm of the IC50 (pIC50) was more than 7.30. For the molecule `CN(C)c1cccc2sc3c(=O)n(-c4cccc(Cl)c4)cnc3c12` [103H], the pIC50 was less than 6.00. Regarding `C=CCNc1nncc2sc3c(=O)n(-c4ccc(C)cc4)cnc3c12` [167C], the pIC50 is 6.00 to 6.82. Still for that read-out and setting: the value for `Cc1ccc(-n2cnc3c(sc4nccc(NCC5CCCO5)c43)c2=O)cc1` (stereo not shown) [28ET] was 6.82 to 7.30. As to `Cc1ccc(-n2cnc3c(sc4nc(C5CC5)nc(N)c43)c2=O)cc1` [71D], the pIC50 was 6.00 to 6.82.

Consider `CCNc1ccnc2sc3c(=O)n(-c4ccc(OC)cc4F)cnc3c12` [28BJ], for which the pIC50 was 6.82 to 7.30. Turning to `CCc1ncnc2sc3c(=O)n(-c4ccc(Cl)cc4)cnc3c12` [compound 202], the pIC50 was more than 7.30.

As for `O=c1c2sc3ncnc(NC4CC4)c3c2ncn1-c1ccc(Br)cc1` [95AU], the pIC50 is more than 7.30. Still for that read-out and setting: to `O=c1c2sc3ncnc(NC4CC4)c3c2ncn1-c1ccc(Br)cc1F` [95AX] belongs 6.82 to 7.30; to `COCCCNc1ccnc2sc3c(=O)n(-c4ccc(C)cc4)cnc3c12` [28CZ], more than 7.30; to `C#CCNc1nc(C)nc2sc3c(=O)n(-c4ccc(OC)cc4)cnc3c12` [95FM], 6.82 to 7.30. Consider `Cc1ccc(-n2cnc3c(sc4ncnc(NCc5cccs5)c43)c2=O)cc1` [95FV], for which the pIC50 was 6.00 to 6.82.

Regarding `O=c1c2sc3ncnc(Nc4ccccc4)c3c2ncn1-c1ccc(F)cc1` [95FZ], the pIC50 is less than 6.00. The same measure, in the same setting: the value for `CN(CC(O)CO)c1ccnc2sc3c(=O)n(-c4ccc(Cl)cc4)cnc3c12` (stereo not shown) [28HQ] was 6.82 to 7.30. Consider `CNc1ccnc2sc3c(=O)n(-c4ccc(Cl)cc4)cnc3c12` [compound 193], for which the pIC50 was more than 7.30.

With `CCc1ccnc2sc3c(=O)n(-c4ccc(OC)cc4)cnc3c12` [29I], the pIC50 is more than 7.30.

On to `COc1ccc(-n2cnc3c(sc4nccc(NC5CC5)c43)c2=O)cc1Cl` [131K], for which the pIC50 was less than 6.00. Turning to `COc1ccc(-n2cnc3c(sc4ncnc(Nc5ccc(Cl)cc5)c43)c2=O)cc1` [190E], the pIC50 is 6.00 to 6.82. Turning to `C#CCN(C)c1ccnc2sc3c(=O)n(-c4ccc(Cl)cc4)cnc3c12` [28DX], the negative logarithm of the IC50 (pIC50) is more than 7.30. With `COCCNc1nncc2sc3c(=O)n(-c4ccc(C)cc4)cnc3c12` [167D], the pIC50 is less than 6.00. Regarding `C#CCNc1ncnc2sc3c(=O)n(-c4ccc(C)cc4)cnc3c12` [95EH], the pIC50 is more than 7.30.

Regarding `Cc1ccc(-n2cnc3c(sc4nccc(NCC(C)(C)C)c43)c2=O)cc1` [28ES], the pIC50 was less than 6.00.

Turning to `C=CCN(C)c1ccnc2sc3c(=O)n(-c4ccc(Br)cc4)cnc3c12` [28EB], the pIC50 is 6.82 to 7.30. Same read-out and setting: to `COc1ccc(-n2cnc3c(sc4nc(N)cc(N)c43)c2=O)cc1` [59H] belongs more than 7.30; to `COc1ccc(-n2cnc3c(sc4ncnc(Nc5nccs5)c43)c2=O)cc1` [190D], 6.00 to 6.82. `COCCCNc1ccnc2sc3c(=O)n(-c4ccc(F)cc4)cnc3c12` [28GS]: the pIC50 is more than 7.30. For `CNc1c(C2CC2)cnc2sc3c(=O)n(-c4ccc(OC)cc4)cnc3c12` [137E], the pIC50 is more than 7.30. Consider `CC(O)CCNc1ccnc2sc3c(=O)n(-c4ccc(Br)cc4)cnc3c12` (stereo not shown) [28HO], for which the pIC50 is more than 7.30. In the case of `Cc1ccc(-n2cnc3c(sc4cnnc(N(C)C)c43)c2=O)cc1` [167B], the pIC50 is 6.82 to 7.30.

In the case of `C#CCOc1nncc2sc3c(=O)n(-c4ccc(C)cc4)cnc3c12` [167E], the pIC50 is less than 6.00.

The assay is the same for the next values; noted with them: against Quisqualate 1 μM (EC80), FLIPR calcium mobilization, read-out: mGluR1 IC50.
Regarding `CN(C)c1ccnc2sc3c(=O)n(C4CCCCC4)cnc3c12` [7Q], the pIC50 was 9.46. As for `O=c1c2sc3ncnc(NC4CC4)c3c2ncn1-c1ccc(Br)cc1` [95AU], the pIC50 was 8.86.

Consider `CN(C)c1ccnc2sc3c(=O)n(C4CCCCCC4)cnc3c12` [7X], for which the pIC50 is 9.17.

Consider `CNc1ccnc2sc3c(=O)n(-c4ccc(Cl)cc4)cnc3c12` [compound 193], for which the pIC50 was 9.74.

The assay is the same for the next values; noted with them: against Quisqualate 1 μM (EC80), class symbols, read-out: mGIuR 1 IC50.
For `CN(C)c1ccnc2sc3c(=O)n(-c4ccc(O)c(F)c4)cnc3c12` [7CT], the pIC50 was more than 7.30. In the case of `COc1ccc(-n2cnc3c(sc4nc(C)cc(N(C)C)c43)c2=O)cc1` [7CJ], the negative-log IC50 (pIC50) was 6.82 to 7.30. Regarding `COc1cccc(-n2cnc3c(sc4nccc(N(C)C)c43)c2=O)c1` [7AA], the pIC50 was more than 7.30.

In the case of `Cc1ccc(-n2cnc3c(sc4nccc(N(C)C)c43)c2=O)cc1C` [7CV], the pIC50 was more than 7.30. For `C=CCNc1ccnc2sc3c(=O)n(-c4ccc(C)cc4)cnc3c12` [72I], the pIC50 was more than 7.30. In the case of `Cc1ccc(-n2cnc3c(sc4nccc(N(C)C)c43)c2=O)cc1I` [7DY], the pIC50 was 6.82 to 7.30. Turning to `CCN(C)c1ncnc2sc3c(=O)n(-c4ccc(C)cc4)cnc3c12` [95H], the pIC50 was more than 7.30. In the case of `CN(C)c1c(C=O)cnc2sc3c(=O)n(C4CCCCC4)cnc3c12` [compound 45], the negative logarithm of the IC50 (pIC50) is more than 7.30. On to `CN(C)c1ccnc2sc3c(=O)n(Cc4ccsc4)cnc3c12` [15V], for which the pIC50 was 6.00 to 6.82. For the molecule `Cc1ccc(-n2c(C)nc3c(sc4nccc(NCC(F)(F)F)c43)c2=O)cc1` [113L], the negative logarithm of the IC50 (pIC50) is 6.00 to 6.82.

Consider `CN(C)c1ccnc2sc3c(=O)n(C4CCCCC4)cnc3c12` [7Q], for which the pIC50 was more than 7.30. Consider `Cc1ccc(-n2c(C)nc3c(sc4nccc(NC5CC5)c43)c2=O)cc1` [113J], for which the pIC50 was 6.00 to 6.82. In the case of `CN(C)c1ccnc2sc3c(=O)n(-c4ccc(Br)c(C(F)(F)F)c4)cnc3c12` [7DS], the negative-log IC50 (pIC50) was 6.00 to 6.82. In the case of `CN(C)c1ccnc2sc3c(=O)n(C4CCCCCC4)cnc3c12` [7X], the pIC50 was more than 7.30. On to `CNc1ccnc2sc3c(=O)n(-c4ccc(C)cc4)c(C)nc3c12` [113G], for which the pIC50 is more than 7.30.

Take `CN(C)c1ccnc2sc3c(=O)n(C4Cc5ccccc5C4)cnc3c12` [15Y]: the pIC50 was more than 7.30.

Turning to `CCCc1ccc(-n2cnc3c(sc4nccc(N(C)C)c43)c2=O)cc1` [7BK], the pIC50 was 6.00 to 6.82. For the molecule `CCOC(=O)N1CCC(n2cnc3c(sc4nccc(N(C)C)c43)c2=O)CC1` [7J], the pIC50 was less than 6.00. On to `CN(C)c1ccnc2sc3c(=O)n(-c4ccc(CO)cc4)cnc3c12` [7AY], for which the pIC50 is more than 7.30. On to `Cc1ccc(-n2c(C(F)(F)F)nc3c(sc4nccc(N(C)C)c43)c2=O)cc1` [117A], for which the negative logarithm of the IC50 (pIC50) was 6.00 to 6.82. Same read-out and setting: the value for `Cc1cc(N(C)C)c2c(n1)sc1c(=O)n(-c3ccc(C(F)(F)F)cc3)cnc12` [7DM] was 6.00 to 6.82; that for `O=c1c2sc3nccc(O)c3c2ncn1C1CCCCC1` [26A] was less than 6.00; that for `O=c1c2sc3nccc(NCCc4ccccc4)c3c2ncn1C1CCCCC1` [72F] was less than 6.00. Take `COc1ccc(-c2c(C(C)=O)c(C)nc3sc4c(=O)n(-c5ccc(Cl)cc5)cnc4c23)cc1` [P-11]: the negative-log IC50 (pIC50) was 6.00 to 6.82. `COCCNc1ccnc2sc3c(=O)n(-c4ccc(C)cc4)cnc3c12` [28AZ]: the pIC50 is more than 7.30.

With `CN1CCN(c2ccnc3sc4c(=O)n(C5CCCCC5)cnc4c23)CC1` [61A], the pIC50 is less than 6.00.

One may read the pIC50 as the IC50 on a negative log10 scale, so that one unit is a factor of ten.
